Assays:
Settings in all cases: 3 μM; percent of control kinase activity
[1] = molecular target: CaMKIV(h) (Homo sapiens, UniProt Q16566); assay: CaMKIV(h) kinase assay; assay type: biochemical
Description: (§1) Six compounds (presumptive single agents) were tested against a panel of 50 kinases. The results are presented in Table 2; numbers for each kinase indicate the percent of control kinase activity in the presence of a 3μM concentration of the indicated agent.
(§2) Agents that target two or more different kinases are useful in the methods of the invention as described elsewhere herein. Such compounds may be identified, and their effect on certain kinases may be identified, using the assays briefly described below in Examples 4-83. Each of these assays was carried out as described in Davies et al., Biochem. J., 351:95-105 (2000). All assays were carried out at 10 μM ATP unless otherwise noted.
(§3) In a final reaction volume of 25 μl, CaMKIV (h) (5-10 mU) is incubated with 40 mM Hepes pH 7.4, 5 mM CaCl2, 30 μg/ml calmodulin, 30 μM […] (SEQ ID NO:11), 10 mM MgAcetate and [γ-^33P-ATP] (specific activity approx. 500 cpm/pmol, concentration as required). The reaction is initiated by the addition of Mg^2+ [γ-^33P-ATP]. After incubation for 40 minutes at room temperature, the reaction is stopped by the addition of 5 μl of a 3% phosphoric acid solution. 10 μl of the reaction is then spotted onto a P30 filtermat and washed three times for 5 minutes in 75 mM phosphoric acid and once in methanol prior to drying and scintillation counting.

[2] = molecular target: T1, PRAK(h) (Homo sapiens, UniProt Q8IW41); assay: PRAK(h) kinase assay; assay type: biochemical
T1 sequence (Q8IW41 1-473): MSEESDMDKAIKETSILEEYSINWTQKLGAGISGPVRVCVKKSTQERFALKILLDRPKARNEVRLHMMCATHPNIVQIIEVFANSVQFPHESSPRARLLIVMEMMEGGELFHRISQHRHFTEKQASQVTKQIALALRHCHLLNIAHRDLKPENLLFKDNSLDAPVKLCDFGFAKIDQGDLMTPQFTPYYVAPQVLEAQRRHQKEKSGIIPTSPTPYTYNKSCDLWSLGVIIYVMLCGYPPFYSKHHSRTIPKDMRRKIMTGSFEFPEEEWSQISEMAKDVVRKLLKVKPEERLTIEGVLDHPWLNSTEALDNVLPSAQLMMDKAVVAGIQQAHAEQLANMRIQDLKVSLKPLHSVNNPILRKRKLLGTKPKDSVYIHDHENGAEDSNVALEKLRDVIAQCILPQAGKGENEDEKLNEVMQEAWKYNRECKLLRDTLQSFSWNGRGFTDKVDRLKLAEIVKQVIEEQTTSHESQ
Description: as §1, §2
In a final reaction volume of 25 μl, PRAK (h) (5-10 mU) is incubated with 50 mM Na-β-glycerophosphate pH 7.5, 0.1 mM EGTA, 30 μM […] (SEQ ID NO11), 10 mM MgAcetate and [γ-^33P-ATP] (specific activity approx. 500 cpm/pmol, concentration as required). The reaction is initiated by the addition of Mg^2+ [γ-^33P-ATP]. After incubation for 40 minutes at room temperature, the reaction is stopped by the addition of 5 μl of a 3% phosphoric acid solution. 10 μl of the reaction is then spotted onto a P30 filtermat and washed three times for 5 minutes in 50 mM phosphoric acid and once in methanol prior to drying and scintillation counting.

[3] = system: AMPK(r); assay: AMPK(r) kinase assay; assay type: biochemical, rat
Description: as §1, §2
as §3, with “μl, AMPK(r)” for “μl, CaMKIV (h)”, “with 50” for “with 40”, “7.4, 1” for “7.4, 5”, “mM DTT, 0.02% Brij-35, 200 μM AMP, 200” for “mM CaCl2, 30 μg/ml calmodulin, 30”, “ID NO:4),” for “ID NO:11),”, “[γ-^33P-ATP] (Specific” for “[γ-^33P-ATP] (specific”

[4] = molecular target: T2, CHK1(h) (Homo sapiens, UniProt O14757); assay: CHK1(h) kinase assay; assay type: biochemical
T2 sequence (O14757 1-476): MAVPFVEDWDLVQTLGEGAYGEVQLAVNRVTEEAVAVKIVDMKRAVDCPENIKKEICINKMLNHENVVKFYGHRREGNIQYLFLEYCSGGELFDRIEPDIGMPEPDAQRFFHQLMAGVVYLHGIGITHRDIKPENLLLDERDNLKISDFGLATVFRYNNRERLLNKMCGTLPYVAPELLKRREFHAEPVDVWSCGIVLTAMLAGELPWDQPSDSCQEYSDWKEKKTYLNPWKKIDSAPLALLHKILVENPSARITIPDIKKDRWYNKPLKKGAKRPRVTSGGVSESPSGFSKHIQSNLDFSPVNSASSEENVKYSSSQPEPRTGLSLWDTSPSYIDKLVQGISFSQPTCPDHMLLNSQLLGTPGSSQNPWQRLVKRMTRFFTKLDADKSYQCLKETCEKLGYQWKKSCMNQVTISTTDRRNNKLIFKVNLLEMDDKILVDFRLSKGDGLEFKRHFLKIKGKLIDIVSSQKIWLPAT
Description: as §1, §2
as §3, with “μl, CHK1(h)” for “μl, CaMKIV (h)”, “with 8” for “with 40”, “mM MOPS” for “mM Hepes”, “pH 7.0,0.2” for “pH 7.4, 5”, “mM EDTA, 200” for “mM CaCl2, 30 μg/ml calmodulin, 30”, “ID NO:5),” for “ID NO:11),”

## COc1ccc2cc(-c3n[nH]c4ccc(-c5n[nH]c(CN6CCOCC6)n5)cc34)ccc2c1 [CC001, 3-(6-Methoxynaphthalen-2-yl)-5-(5-Morpholin-4-Ylmethyl-1H-[1,2,4]Triazol-3-yl)-1H-Indazole]
[1]
  Inhibitory activity (% of control), CaMKIV(h): 82 % of control
[2]
  Inhibitory activity (% of control), PRAK(h): 12 % of control
[3]
  Inhibitory activity (% of control), AMPK(r): 52 % of control
[4]
  Inhibitory activity (% of control), CHK1(h): 36 % of control

## CC(C)Cc1nc(-c2ccc3[nH]nc(-c4ccc5cc(OCCN6CCCC6)ccc5c4)c3c2)n[nH]1 [CC002, 5-(5-Isobutyl-1H-[1,2,4]Triazol-3-yl)-3-[6-(2-Pyrrolidin-1-yl-Ethoxy)-Naphthalen-2-yl]-1H-Indazole]
[1]
  Inhibitory activity (% of control), CaMKIV(h): 60 % of control
[2]
  Inhibitory activity (% of control), PRAK(h): 6 % of control
[3]
  Inhibitory activity (% of control), AMPK(r): 4 % of control
[4]
  Inhibitory activity (% of control), CHK1(h): 12 % of control

## CC(C)(C)Cc1nc(-c2ccc3[nH]nc(-c4ccc5cc(OCc6ccccn6)ccc5c4)c3c2)n[nH]1 [CC004, 5-[5-(2,2-Dimethyl-propyl)-1H-[1,2,4]triazol-3-yl]-3-[6-(pyridine-2-ylmethoxy)-naphthalen-2-yl]-1H-indazole]
[1]
  Inhibitory activity (% of control), CaMKIV(h): 80 % of control
[2]
  Inhibitory activity (% of control), PRAK(h): 24 % of control
[3]
  Inhibitory activity (% of control), AMPK(r): 54 % of control
[4]
  Inhibitory activity (% of control), CHK1(h): 64 % of control

## CCN1CCC[C@H]1COc1ccc2cc(-c3n[nH]c4ccc(-c5nc(CC(C)(C)C)n[nH]5)cc34)ccc2c1 [CC005, 2-[((2s)-1-ethylpyrrolidin-2-yl)methoxy]-6-{5-[3-(2,2-Dimethylpropyl)(1H-1,2,4,-triazol-5-yl)](1H-indazol-3-yl)}naphthalene]
[1]
  Inhibitory activity (% of control), CaMKIV(h): 22 % of control
[2]
  Inhibitory activity (% of control), PRAK(h): 10 % of control
[3]
  Inhibitory activity (% of control), AMPK(r): 2 % of control
[4]
  Inhibitory activity (% of control), CHK1(h): 6 % of control

## Fc1ccc(-c2n[nH]c3ccc(-c4n[nH]c(C5CCCC5)n4)cc23)cc1 [CC006, 5-(5-Cyclopentyl-1H-[1,2,4]triazol-3-yl)-3-(4-fluoro-phenyl)-1H-indazole, reference compound]
[1]
  Inhibitory activity (% of control), CaMKIV(h): 95 % of control
[2]
  Inhibitory activity (% of control), PRAK(h): 12 % of control
[3]
  Inhibitory activity (% of control), AMPK(r): 74 % of control
[4]
  Inhibitory activity (% of control), CHK1(h): 70 % of control

## O=C(NC1CCCC1)c1cccc(-c2n[nH]c3ccc(-c4nc[nH]n4)cc23)c1 [CC007, 3-(5-(1H-1,2,4-triazol-3-yl)(1H-indazol-3-yl))phenyl-N-cyclopentylcarboxamide, reference compound]
[1]
  Inhibitory activity (% of control), CaMKIV(h): 86 % of control
[2]
  Inhibitory activity (% of control), PRAK(h): 0 % of control
[3]
  Inhibitory activity (% of control), AMPK(r): 74 % of control
[4]
  Inhibitory activity (% of control), CHK1(h): 90 % of control

From patent US20050107386A1, “Methods of treating diseases and disorders by targeting multiple kinases” (priority 2003, published 2005)
